What was measured:
[1] = Solubility of Tazarotene in water; type: physicochemical
Description: The invention is directed to capsule systems for the delivery of active agents, particularly retinoids. In a preferred example, it is known that the compound Tazarotene, known chemically as ethyl 6-[(4,4-dimethylthiochroman-6-yl)ethynyl]-nicotinate, having the molecular formula C21H21NO2S, is active in the treatment of acne and psoriasis. […] However, the solubility of Tazarotene in water is negligible.

[2] = Amount of Tazarotene solubilized in caprylic/capric triglyceride per capsule; type: physicochemical; settings: caprylic/capric triglyceride vehicle
Description: Importantly, the retinoid agent, Tazarotene, is fully dissolved in the vehicle in a conventional manner before incorporation into the capsule shell. The total dissolution of Tazarotene in the vehicle facilitates absorption from the gastro-intestinal tract by eliminating the need for drug dissolution prior to absorption.

[3] = women of child-bearing age who just get off treatment; cited from earlier work

Structure (SMILES) | solubility in water [1] | amount effectively solubilized in a capsule [2] | typical precautionary pregnancy wash-out period [3]
CCOC(=O)c1ccc(C#Cc2ccc3c(c2)C(C)(C)CCS3)nc1 [Tazarotene, ethyl 6-[(4,4-dimethylthiochroman-6-yl)ethynyl]-nicotinate] | negligible | up to 34 mg | –
COc1cc(C)c(/C=C/C(C)=C/C=C/C(C)=C/C(=O)O)c(C)c1C [acitretin] | – | – | three years
CC1=C(/C=C/C(C)=C/C=C/C(C)=C\C(=O)O)C(C)(C)CCC1 [isotretinoin] | – | – | one month

Source: patent US6656500B2, “Capsule system” (Allergan, Inc., priority 1999, dated 2003)
